Source: US4657897A, “N^6 -substituted adenosines for treating pain” (Warner-Lambert Company, priority 1985, dated 1987)

Experiments:
[1] = Mouse Activity and Screen Test (MAST), screen test failure (ST); type: in vivo, mouse (Swiss-Webster, male); details: for Inhibition of screen test failure: percent of mice falling off the screen
Method: Treatments are administered intraperitoneally one hour prior to testing. […] Compounds are dissolved or suspended in 0.2% Methocel. Control animals are injected with Methocel.
The compounds are identified in the Examples.

adenosine A1 receptor = molecular target: T1, adenosine A1 receptor (Rattus norvegicus, UniProt P25099); assay: Adenosine Receptor Binding--A1 Receptor Affinity (RBA1), [3H]-CHA binding, rat whole brain membranes; set-up: species or system rat (male Long Evans); details: 1.0 nM [3H]-CHA, 25° C., 1 h
T1 construct: Whole brain minus cerebellum and brainstem from male Long Evans rats; from tissue; host or cells: rat whole brain minus cerebellum and brainstem (male Long Evans), membranes
T1 sequence (P25099 1-326): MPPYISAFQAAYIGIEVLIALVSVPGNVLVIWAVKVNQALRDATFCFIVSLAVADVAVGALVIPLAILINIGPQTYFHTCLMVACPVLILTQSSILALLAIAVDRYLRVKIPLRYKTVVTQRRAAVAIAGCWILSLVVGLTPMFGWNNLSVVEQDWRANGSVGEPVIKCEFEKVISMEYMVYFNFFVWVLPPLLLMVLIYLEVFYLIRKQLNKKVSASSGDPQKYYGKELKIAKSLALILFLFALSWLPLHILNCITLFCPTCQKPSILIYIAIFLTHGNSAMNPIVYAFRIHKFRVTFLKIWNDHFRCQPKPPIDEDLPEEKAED
Method: Adenosine Receptor Binding--A1 Receptor Affinity (RBA1)
Whole brain minus cerebellum and brainstem from male Long Evans rats (150-200 g) was homogenized in 30 volumes of ice-cold 0.05M Tris-HCl buffer pH 7.7 using a Brinkman Polytron PT-10, (setting number 6 for 20 seconds) and centrifuged for ten minutes at 20,000×g (Sorvall RC-2), 4° C. The supernatant was discarded, and the pellet was resuspended and centrifuged as before. The pellet was resuspended in 20 ml Tris-HCl buffer containing two International Units/ml of adenosine deaminase (Sigma type III from calf intestinal mucosa), incubated at 37° C. for 30 minutes, then subsequently at 0° C. for ten minutes. The homogenate was again centrifuged, and the final pellet was resuspended in ice-cold 0.05M Tris-HCl buffer pH 7.7 to a concentration of 20 mg/ml original wet tissue weight and used immediately.
Tissue homogenate (10 mg/ml) was incubated in 0.05M Tris-HCl buffer pH 7.7 containing 1.0 nM [^3 H]-N^6 -cyclohexyladenosine[^3 H]-CHA) with or without test agents in triplicate for one hour at 25° C. Incubation volume was 2 ml. Unbound [^3 H]-CHA was separated by rapid filtration under reduced pressure through Whatman glass fiber (GF/B) filters. The filters were rinsed three times with 5 ml of ice cold 0.05M Tris-HCl buffer pH 7.7. The radio-labeled ligand retained on the filter was measured by liquid scintillation spectrophotometry after shaking the filters for one hour or longer on a mechanical shaker in 10 ml of Beckman Ready-Solv HP scintillation cocktail.
Nonspecific binding was defined as the binding which occurred in the presence of 1 mM theophylline. The concentration of test agent which inhibited 50% of the specific binding (IC50) was determined by nonlinear computer curve fit. The Scatchard plot was calculated by linear regression of the line obtained by plotting the amount of radioligand bound (pmoles/gram of tissue) [formula] Since the amount of radioligand bound was a small fraction of the total amount added, free radioligand was defined as the concentration (nM) of radioligand added to the incubation mixture. The Hill coefficient was calculated by linear regression of the line obtained by plotting the log of the bound radioligand vs the log of the [formula] The maximal number of binding sites (Bmax) was calculated from the Scatchard plot.

- IC50 (adenosine A1 receptor): 0.139 µM
Structure (SMILES): OC[C@H]1O[C@@H](n2cnc3c(NCCC(c4ccccc4)c4ccccc4)ncnc32)[C@H](O)[C@@H]1O [Example 2, N^6-(3,3-Diphenylpropyl)adenosine]
- Inhibition of screen test failure ([1]; 10 mg/kg intraperitoneal): 0%
- Inhibition of screen test failure ([1]; 30 mg/kg intraperitoneal): 0%
- Inhibition of screen test failure ([1]; 100 mg/kg intraperitoneal): 0%
- minimal effective dose ([1]; Mus musculus, ip, lowest dose at which an A rating is achieved, screen test, intraperitoneal, 1 h prior to testing, read-out: MAST ST LAD): > 100 mg/kg
